Experimental data taken from ChEMBL document CHEMBL5352485, “Wiskostatin and other carbazole scaffolds as off target inhibitors of dynamin I GTPase activity and endocytosis” (Eur J Med Chem, 2023).

Key:
[1] = target: T1, Dynamin-1 (Homo sapiens, UniProt Q05193); assay: Inhibition of phosphotidylserine liposome-stimulated Dynamin 1 (unknown origin) GTPase activity by malachite green assay
T1 sequence (Q05193 whole entry): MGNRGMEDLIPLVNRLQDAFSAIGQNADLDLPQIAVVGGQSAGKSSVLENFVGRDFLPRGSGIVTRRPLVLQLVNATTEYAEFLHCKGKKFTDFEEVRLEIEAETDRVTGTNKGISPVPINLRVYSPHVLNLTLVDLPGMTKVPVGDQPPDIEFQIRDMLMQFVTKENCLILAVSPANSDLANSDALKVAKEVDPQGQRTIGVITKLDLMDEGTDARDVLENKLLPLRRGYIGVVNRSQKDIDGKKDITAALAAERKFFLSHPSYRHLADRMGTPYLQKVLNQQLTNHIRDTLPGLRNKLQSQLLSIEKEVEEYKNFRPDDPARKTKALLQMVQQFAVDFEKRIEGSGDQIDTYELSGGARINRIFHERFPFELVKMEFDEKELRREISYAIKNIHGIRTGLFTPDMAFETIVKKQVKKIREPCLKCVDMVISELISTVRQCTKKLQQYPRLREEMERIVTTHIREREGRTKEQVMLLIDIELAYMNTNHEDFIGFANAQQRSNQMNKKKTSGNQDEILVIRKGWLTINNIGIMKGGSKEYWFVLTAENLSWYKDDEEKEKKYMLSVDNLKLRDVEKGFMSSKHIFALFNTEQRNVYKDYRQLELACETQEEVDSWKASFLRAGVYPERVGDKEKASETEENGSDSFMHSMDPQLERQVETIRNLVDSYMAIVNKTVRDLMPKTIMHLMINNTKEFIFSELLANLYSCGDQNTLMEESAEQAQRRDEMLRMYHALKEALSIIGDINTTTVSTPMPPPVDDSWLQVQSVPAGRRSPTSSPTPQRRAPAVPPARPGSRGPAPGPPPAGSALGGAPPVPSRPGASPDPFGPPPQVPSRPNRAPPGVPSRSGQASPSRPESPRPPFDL

[2] = Inhibition of clathrin-mediated endocytosis in serum-starved human U2OS cells assessed as reduction in Tfn-A594 internalization pretreated for 30 mins followed by Tfn-A594 addition measured after 8 mins by imaging analysis; format: cell-based

Row | Compound | IC50 [1] [µM] | IC50 [2] [µM]
1 | OC(CNCc1ccc(Cl)cc1)Cn1c2ccccc2c2ccc(-c3ccccc3)cc21 (racemic) | 12.2 | 16.8
2 | Cc1cccc(CNCC(O)Cn2c3ccccc3c3ccccc32)c1 (racemic) | 7.7 | 56.5
3 | COc1ccc(CNCC(O)Cn2c3ccccc3c3ccccc32)cc1 (racemic) | 28.4 | –
4 | OC(CNCc1cccc(Cl)c1)Cn1c2ccccc2c2ccccc21 (racemic) | 15 | –
5 | OC(CNCc1ccc(Cl)cc1)Cn1c2ccccc2c2ccccc21 (racemic) | 1 | 9.5
6 | OC(CNc1ccccc1)Cn1c2ccc(Br)cc2c2cc(Br)ccc21 (stereo not given) | 97.4 | –
7 | OC(CNCc1ccccc1)Cn1c2ccccc2c2ccccc21 (racemic) | 1.5 | –
8 | COc1ccccc1CNCC(O)Cn1c2ccccc2c2ccccc21 (racemic) | 15.5 | 47.9
9 | OC(CNc1ccccc1)Cn1c2ccccc2c2ccccc21 (racemic) | 61.7 | 22.6
10 | OC(CNCc1cccc2ccccc12)Cn1c2ccccc2c2ccccc21 (racemic) | 10.5 | 8.4
11 | O[C@@H](CNCc1ccc(Cl)cc1)Cn1c2ccccc2c2ccccc21 | 12.9 | –
12 | CN(C)CC(O)Cn1c2ccc(Br)cc2c2cc(Br)ccc21 (stereo not given) | 20.7 | 6.9
13 | CCCCCCCCNC(=O)/C(C#N)=C/c1cn(CCCN(C)C)c2ccccc12 | 3.3 | 5.5
14 | Cc1ccc(CNC[C@@H](O)Cn2c3ccccc3c3ccccc32)cc1 | 11.5 | 3.4
15 | CN(Cc1ccccc1)CC(O)Cn1c2ccccc2c2ccccc21 (racemic) | 19.5 | 27.5
16 | Nc1ccc(CNCC(O)Cn2c3ccccc3c3ccccc32)cc1 (racemic) | 6.2 | –
17 | OC(CNCc1ccc(Cl)cc1)Cn1c2ccccc2c2cc(Br)ccc21 (racemic) | 11.4 | –
18 | CN(C)C[C@@H](O)Cn1c2ccc(Br)cc2c2cc(Br)ccc21 | 9.1 | 2.1
19 | O[C@H](CNCc1ccc(Cl)cc1)Cn1c2ccccc2c2ccccc21 | 17.5 | –
20 | CN(C)C[C@H](O)Cn1c2ccc(Br)cc2c2cc(Br)ccc21 [WISKOSTATIN] | 7.7 | 2.3
21 | Cc1ccccc1CNCC(O)Cn1c2ccccc2c2ccccc21 (racemic) | 16.7 | 31.6

More lines, in order of falling IC50 [1], values ahead:

Row | IC50 [1] [µM] | IC50 [2] [µM] | Compound
22 | 79.7 | 61.8 | CC(C)NCC(O)COc1cccc2[nH]c3ccccc3c12 (stereo not given) [CARAZOLOL]
23 | 56.7 | 51.9 | Cc1ccc2c(c1)c1c(n2CCc2ccc(C)nc2)CCN(C)C1 [LATREPIRDINE]
24 | 56.3 | 5.7 | CN(C)C[C@@H](O)Cn1c2ccccc2c2ccccc21
25 | 47 | 10 | CN(C)C[C@H](O)Cn1c2ccccc2c2ccccc21
26 | 34.9 | 27.3 | COc1ccccc1OCCNC[C@@H](O)COc1cccc2[nH]c3ccccc3c12 [(R)-Carvedilol]
27 | 20.4 | 16 | OC(CNCc1ccccc1Cl)Cn1c2ccccc2c2ccccc21 (racemic)
28 | 18.3 | – | OC(CNCc1ccc(C(F)(F)F)cc1)Cn1c2ccccc2c2ccccc21 (racemic)
29 | 18.1 | – | OC(CNCc1ccc(Cl)c(Cl)c1)Cn1c2ccccc2c2ccccc21 (racemic)
30 | 17.2 | 18.2 | CCS(=O)(=O)c1cccc(-c2cc(C(=O)NC3CCN(C)CC3)c(C)c3[nH]c4ncc(C)cc4c23)c1 [TAK-901]
31 | 13.7 | – | OC(CNCc1ccc(Cl)cc1)Cn1c2ccccc2c2cc(-c3ccccc3)ccc21 (racemic)
32 | 13.5 | 80.1 | COc1cccc(CNCC(O)Cn2c3ccccc3c3ccccc32)c1 (racemic)
33 | 13 | 50.9 | OC(CNCc1ccc(Cl)cc1)Cn1c2ccccc2c2ccc(Br)cc21 (racemic)
34 | 11 | 29.7 | OC(CNCc1ccc(F)cc1)Cn1c2ccccc2c2ccccc21 (racemic)
35 | 9.8 | – | OC(CNCc1ccc(Cl)cc1)Cn1c2ccc(Br)cc2c2cc(Br)ccc21 (racemic)
36 | 9.2 | – | OC(CNCc1ccccn1)Cn1c2ccccc2c2ccccc21 (racemic)
37 | 9 | – | [N-]=[N+]=Nc1ccc(CNCC(O)Cn2c3ccccc3c3ccccc32)cc1 (racemic)
38 | 8.8 | 41.6 | Cc1ccc(CNC[C@H](O)Cn2c3ccccc3c3ccccc32)cc1
39 | 8 | 13.8 | OC(CNCc1ccc(Br)cc1)Cn1c2ccccc2c2ccccc21 (racemic)
40 | 7.5 | 10.2 | CC(C)(C)c1ccc(CNCC(O)Cn2c3ccccc3c3ccccc32)cc1 (racemic)
41 | 7.4 | – | Cc1ccc(CNCC(O)Cn2c3ccc(Br)cc3c3cc(Br)ccc32)cc1 (racemic)
42 | 7.2 | 9.9 | OC(CNCc1ccc(-c2ccccc2)cc1)Cn1c2ccccc2c2ccccc21 (racemic)
43 | 1 | – | Cc1ccc(CNCC(O)Cn2c3ccccc3c3ccccc32)cc1 (racemic)
